Results as given in PubChem BioAssay AID2060496 (Molecular Pharmacology Branch, DTP, NCI, 2025).

System: 276233-004-R-J1-PDC complex spheroid viability
Assay: Anticancer human tumor 276233-004-R-J1-PDC patient-derived colon adenocarcinoma cell line growth inhibition [GQUAD]
Conditions: for IC50: curve of first compound; for viability, T/C: stronger effect = lower value
In short: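 Multi-cell-type spheroids of tumor cells with HUVEC and mesenchymal stem cells, treated with drug combinations. Concentrations descend in half-log steps from near clinical Cmax, or from 10 microM where Cmax is unknown; viability read-out.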

[1] = second compound 0.0316 µM, first compound 0.0316 µM
[2] = second compound 0.0316 µM, first compound 0.1 µM
[3] = second compound 0.0316 µM, first compound 0.316 µM
[4] = second compound 0.0316 µM, first compound 1 µM
[5] = second compound 0.0316 µM, first compound 3.16 µM
[6] = second compound 0.0316 µM, first compound 10 µM
[7] = second compound 0.1 µM, first compound 0.0316 µM
[8] = second compound 0.1 µM, first compound 0.1 µM
[9] = second compound 0.1 µM, first compound 0.316 µM
[10] = second compound 0.1 µM, first compound 1 µM
[11] = second compound 0.1 µM, first compound 3.16 µM
[12] = second compound 0.1 µM, first compound 10 µM
[13] = second compound 0.316 µM, first compound 0.0316 µM
[14] = second compound 0.316 µM, first compound 0.1 µM
[15] = second compound 0.316 µM, first compound 0.316 µM
[16] = second compound 0.316 µM, first compound 1 µM
[17] = second compound 0.316 µM, first compound 3.16 µM
[18] = second compound 0.316 µM, first compound 10 µM
[19] = second compound 1 µM, first compound 0.0316 µM
[20] = second compound 1 µM, first compound 0.1 µM
[21] = second compound 1 µM, first compound 0.316 µM
[22] = second compound 1 µM, first compound 1 µM
[23] = second compound 1 µM, first compound 3.16 µM
[24] = second compound 1 µM, first compound 10 µM
[25] = second compound 3.16 µM, first compound 0.0316 µM
[26] = second compound 3.16 µM, first compound 0.1 µM
[27] = second compound 3.16 µM, first compound 0.316 µM
[28] = second compound 3.16 µM, first compound 1 µM
[29] = second compound 3.16 µM, first compound 3.16 µM
[30] = second compound 3.16 µM, first compound 10 µM
[31] = second compound 10 µM, first compound 0.0316 µM
[32] = second compound 10 µM, first compound 0.1 µM
[33] = second compound 10 µM, first compound 0.316 µM
[34] = second compound 10 µM, first compound 1 µM
[35] = second compound 10 µM, first compound 3.16 µM
[36] = second compound 10 µM, first compound 10 µM
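Note: spheroids exposed to drugs for seven days.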
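Throughout, for viability, T/C: 100% = DMSO vehicle control viability.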

CC(C)n1c(=O)n(C)c2cnc3cc(F)c(-c4ccc(OCCCN5CCCCC5)nc4)cc3c21 + Cc1[nH]c2ccc(F)cc2c1-c1nc2c3cccnc3c3ncccc3c2[nH]1
IC50 (second compound 0.0316 µM): > 10000 nM | IC50 (second compound 0.1 µM): > 10000 nM | IC50 (second compound 0.316 µM): > 10000 nM | IC50 (second compound 1 µM): > 10000 nM | IC50 (second compound 3.16 µM): 3220 nM | IC50 (second compound 10 µM): < 31.6 nM | viability, T/C [1]: 98.8% | viability, T/C [2]: 86.7% | viability, T/C [3]: 110% | viability, T/C [4]: 80.8% | viability, T/C [5]: 103% | viability, T/C [6]: 82.9% | viability, T/C [7]: 90.9% | viability, T/C [8]: 88.7% | viability, T/C [9]: 85% | viability, T/C [10]: 100% | viability, T/C [11]: 78.2% | viability, T/C [12]: 84.8% | viability, T/C [13]: 88.1% | viability, T/C [14]: 94.3% | viability, T/C [15]: 79% | viability, T/C [16]: 94.2% | viability, T/C [17]: 104% | viability, T/C [18]: 87.8% | viability, T/C [19]: 72.8% | viability, T/C [20]: 73.3% | viability, T/C [21]: 82.2% | viability, T/C [22]: 70.1% | viability, T/C [23]: 80.8% | viability, T/C [24]: 69.7% | viability, T/C [25]: 52% | viability, T/C [26]: 49.2% | viability, T/C [27]: 55% | viability, T/C [28]: 45.8% | viability, T/C [29]: 50.9% | viability, T/C [30]: 26.8% | viability, T/C [31]: 48.7% | viability, T/C [32]: 47% | viability, T/C [33]: 54.9% | viability, T/C [34]: 42% | viability, T/C [35]: 47% | viability, T/C [36]: 21.7%

CC(C)(O)C1CCC(Nc2ccc3ncc(-c4cccc(C(F)(F)F)c4)n3n2)CC1 (centres undefined) + CN(C)c1ccc(Nc2c3ccc(NC(=O)CCN4CCCC4)cc3nc3cc(NC(=O)CCN4CCCC4)ccc23)cc1
IC50 (second compound 0.0316 µM): > 10000 nM | IC50 (second compound 0.1 µM): 2550 nM | IC50 (second compound 0.316 µM): > 10000 nM | IC50 (second compound 1 µM): 1060 nM | IC50 (second compound 3.16 µM): 101 nM | IC50 (second compound 10 µM): < 31.6 nM | viability, T/C [1]: 90.4% | viability, T/C [2]: 84.4% | viability, T/C [3]: 55.8% | viability, T/C [4]: 84% | viability, T/C [5]: 48.6% | viability, T/C [6]: 57% | viability, T/C [7]: 82.6% | viability, T/C [8]: 69.2% | viability, T/C [9]: 62.7% | viability, T/C [10]: 57.4% | viability, T/C [11]: 45.2% | viability, T/C [12]: 46% | viability, T/C [13]: 55.9% | viability, T/C [14]: 55.4% | viability, T/C [15]: 50.2% | viability, T/C [16]: 57.1% | viability, T/C [17]: 55% | viability, T/C [18]: 46.6% | viability, T/C [19]: 75% | viability, T/C [20]: 56.3% | viability, T/C [21]: 54.4% | viability, T/C [22]: 56.3% | viability, T/C [23]: 50.2% | viability, T/C [24]: 41% | viability, T/C [25]: 67.5% | viability, T/C [26]: 45.4% | viability, T/C [27]: 51.3% | viability, T/C [28]: 39% | viability, T/C [29]: 46.8% | viability, T/C [30]: 34% | viability, T/C [31]: 46.3% | viability, T/C [32]: 43.4% | viability, T/C [33]: 41.8% | viability, T/C [34]: 35.5% | viability, T/C [35]: 41% | viability, T/C [36]: 22.4%
